# Test results: PMC7562955 (Nature Communications, 2020)
# Target: T1, human TLR8 (Homo sapiens, UniProt Q9NR97)
# T1 construct: host or cells: HEK293 (TLR8/NF-κB/SEAPorter)
# T1 sequence (Q9NR97 27-1041): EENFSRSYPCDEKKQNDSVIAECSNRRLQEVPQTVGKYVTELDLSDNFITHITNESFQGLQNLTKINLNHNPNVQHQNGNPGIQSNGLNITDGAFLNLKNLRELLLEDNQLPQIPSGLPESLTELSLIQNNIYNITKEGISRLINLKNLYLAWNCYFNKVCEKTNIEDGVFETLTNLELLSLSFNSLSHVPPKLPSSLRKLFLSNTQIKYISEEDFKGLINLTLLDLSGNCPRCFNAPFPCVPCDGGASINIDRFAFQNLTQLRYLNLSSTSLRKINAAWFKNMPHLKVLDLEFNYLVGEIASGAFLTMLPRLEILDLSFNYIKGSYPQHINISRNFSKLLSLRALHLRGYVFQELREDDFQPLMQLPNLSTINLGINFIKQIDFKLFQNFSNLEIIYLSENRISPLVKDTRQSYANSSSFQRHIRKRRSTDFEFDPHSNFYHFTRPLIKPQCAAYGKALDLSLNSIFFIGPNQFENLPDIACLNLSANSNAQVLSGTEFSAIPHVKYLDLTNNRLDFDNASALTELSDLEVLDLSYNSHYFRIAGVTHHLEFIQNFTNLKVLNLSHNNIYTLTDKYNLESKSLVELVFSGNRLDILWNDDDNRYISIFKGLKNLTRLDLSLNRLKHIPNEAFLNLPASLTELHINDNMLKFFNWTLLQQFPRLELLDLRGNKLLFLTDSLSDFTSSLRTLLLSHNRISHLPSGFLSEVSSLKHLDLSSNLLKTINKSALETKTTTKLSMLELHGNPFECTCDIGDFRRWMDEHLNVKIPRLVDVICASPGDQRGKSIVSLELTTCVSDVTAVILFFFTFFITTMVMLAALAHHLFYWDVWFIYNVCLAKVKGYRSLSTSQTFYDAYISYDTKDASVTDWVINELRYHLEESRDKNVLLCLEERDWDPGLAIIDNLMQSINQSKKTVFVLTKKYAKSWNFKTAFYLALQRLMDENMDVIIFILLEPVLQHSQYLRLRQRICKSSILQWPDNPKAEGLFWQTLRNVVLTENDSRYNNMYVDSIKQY
# Experiment: Human TLR8 reporter gene inhibitory activity assay (NF-κB/SEAP HEK293)
# Format: cell-based
# Set-up: key to human TLR8 activity, reporter signal: SEAP activity as absorbance at 405 nm
# Conditions: for human TLR8 activity, reporter signal: R848 30 μM
# Experimental: Compounds were dissolved in dimethyl sulfoxide. Before stimulation with compound, Human TLR7 reporter cell line (TLR7/NF-κB/SEAPorter^TM HEK293 cell, Novus Biological, USA), human TLR8 reporter cell line (TLR8/NF-κB/SEAPorter^TM HEK293 cell, Novus Biological), and human TLR9 reporter cell line (TLR9/NF-κB/SEAPorter^TM HEK293 cell, Novus Biological) were seeded in 96-well microtiter plate (AGC techno glass, Japan) at 5 × 10^4 cells/well in DMEM (GIBCO, United Kingdam) with 10 % fetal bovine serum (GIBCO), and 10 ug/ml Blastcidin S HCl (GIBCO) and incubated at 37 °C in 5% CO2. […] The plates were then incubated an additional 20 ± 1 h at 37 °C in 5% CO2 and then the secreted embryonic alkaline phosphatase (SEAP) activity was measured as activation of human TLR7, 8, and 9. The SEAP activity was evaluated as follows: pNPP (Invitrogen, USA) was added to the incubated sample (50 μl/well); after 15 min, 4 M sodium hydroxide solution (nacalai tesque, Japan) was added thereto (50 μl/well) to quench the reaction; and the absorbance of each sample was measured at 405 nm with microplate reader SpectraMax M4 (Molecular Devices, USA).
inhibition of TLR8,Structure (SMILES),"human TLR8 activity, reporter signal (compound 0.0001 nM (as headed))","human TLR8 activity, reporter signal (compound 0.001 nM (as headed))","human TLR8 activity, reporter signal (compound 0.003 nM (as headed))","human TLR8 activity, reporter signal (compound 0.01 nM (as headed))","human TLR8 activity, reporter signal (compound 0.03 nM (as headed))","human TLR8 activity, reporter signal (compound 0.1 nM (as headed))","human TLR8 activity, reporter signal (compound 0.3 nM (as headed))","human TLR8 activity, reporter signal (compound 1 nM (as headed))","human TLR8 activity, reporter signal (compound 3 nM (as headed))","human TLR8 activity, reporter signal (compound 10 nM (as headed))","human TLR8 activity, reporter signal (compound 30 nM (as headed))","human TLR8 activity, reporter signal (compound 100 nM (as headed))"
,CCOc1nc(N)c2nc(-c3cncc(F)c3)n(Cc3ccc(CN4C[C@@H]5C[C@H]4CN5C)cc3)c2n1 [Cpd-6],2.3942,2.34,2.276,2.199,2.181,2.241,2.31,2.218,2.159,2.04,1.859,1.331
without causing any inhibition,CCCCOc1nc(N)c2nc(-c3cccnc3)n(Cc3ccccc3)c2n1 [Cpd-5],2.52,2.344,2.316,2.3178,2.3193,2.309,2.404,2.342,2.269,2.216,2.0417,2.1673
,CCOc1nc(C)c2nc(-c3cncc(F)c3)n(Cc3ccc(CN4C[C@@H]5C[C@H]4CN5C)cc3)c2n1 [Cpd-7],2.3942,2.221,2.201,2.199,2.25,2.186,2.297,2.272,2.178,2.071,1.909,1.678
